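Dose response: 5 concentrations. Exposure: 48 h. Format: 96-well plates. Endpoint: linear interpolation; highest concentration if not reached. The concentration for 50% growth inhibition is given as GI50. At the TGI there is no net growth.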
Legend:
Experiment in all cases: inhibition of tumour cell growth, NCI panel, 48 h
786-0 renal = tested on: 786-0 renal
A498 renal = tested on: A498 renal
A549 NSCLC = tested on: A549 NSCLC
ACHN renal = tested on: ACHN renal
BT-549 breast = tested on: BT-549 breast
CAKI-1 renal = tested on: CAKI-1 renal
CCRF-CEM leukemia = tested on: CCRF-CEM leukemia
COLO 205 colon = tested on: COLO 205 colon
DU-145 prostate = tested on: DU-145 prostate
EKVX NSCLC = tested on: EKVX NSCLC
HCC-2998 colon = tested on: HCC-2998 colon
HCT-116 colon = tested on: HCT-116 colon
HCT-15 colon = tested on: HCT-15 colon
HL-60(TB) leukemia = tested on: HL-60(TB) leukemia
HOP-62 NSCLC = tested on: HOP-62 NSCLC
HOP-92 NSCLC = tested on: HOP-92 NSCLC
HT29 colon = tested on: HT29 colon
K-562 leukemia = tested on: K-562 leukemia
KM12 colon = tested on: KM12 colon
LOX IMVI melanoma = tested on: LOX IMVI melanoma
MALME-3M melanoma = tested on: MALME-3M melanoma
MCF7 breast = tested on: MCF7 breast
MDA-MB-231 breast = tested on: MDA-MB-231 breast
MDA-MB-435 = tested on: MDA-MB-435
MOLT-4 leukemia = tested on: MOLT-4 leukemia
NCI-H226 lung = tested on: NCI-H226 lung
NCI-H23 lung = tested on: NCI-H23 lung
NCI-H460 lung = tested on: NCI-H460 lung
NCI/ADR-RES ovarian = tested on: NCI/ADR-RES ovarian
OVCAR-3 ovarian = tested on: OVCAR-3 ovarian
OVCAR-4 ovarian = tested on: OVCAR-4 ovarian
OVCAR-5 ovarian = tested on: OVCAR-5 ovarian
OVCAR-8 ovarian = tested on: OVCAR-8 ovarian
PC-3 prostate = tested on: PC-3 prostate
RPMI-8226 leukemia = tested on: RPMI-8226 leukemia
RXF 393 renal = tested on: RXF 393 renal
SF-268 CNS = tested on: SF-268 CNS
SF-295 CNS = tested on: SF-295 CNS
SF-539 CNS = tested on: SF-539 CNS
SK-MEL-2 melanoma = tested on: SK-MEL-2 melanoma
SK-MEL-28 melanoma = tested on: SK-MEL-28 melanoma
SK-MEL-5 melanoma = tested on: SK-MEL-5 melanoma
SK-OV-3 ovarian = tested on: SK-OV-3 ovarian
SN12C renal = tested on: SN12C renal
SNB-19 CNS = tested on: SNB-19 CNS
SNB-75 CNS = tested on: SNB-75 CNS
SR leukemia = tested on: SR leukemia
SW-620 colon = tested on: SW-620 colon
T-47D breast = tested on: T-47D breast
TK-10 renal = tested on: TK-10 renal
U251 CNS = tested on: U251 CNS
UACC-257 melanoma = tested on: UACC-257 melanoma
UACC-62 melanoma = tested on: UACC-62 melanoma
UO-31 renal = tested on: UO-31 renal
HS 578T breast = tested on: HS 578T breast
IGROV1 ovarian = tested on: IGROV1 ovarian

For `Cn1c(-c2c(N)n(Cc3ccc(C(F)(F)F)cc3)c3nc(C#N)c(C#N)nc23)nc2ccccc21`, the GI50 (786-0 renal) was 18.3 µM, the TGI (786-0 renal) was 40.2 µM and the GI50 (A498 renal) was 5.92 µM. It also gave a TGI (A498 renal) of 25.3 µM, a GI50 (A549 NSCLC) of 32.8 µM and a TGI (A549 NSCLC) greater than 100 µM. It also gave a GI50 (ACHN renal) of 22 µM, a TGI (ACHN renal) greater than 100 µM and a GI50 (BT-549 breast) of 20.8 µM. For the same compound, the TGI (BT-549 breast) was 86.6 µM, the GI50 (CAKI-1 renal) was 17.4 µM and the TGI (CAKI-1 renal) was 57.3 µM. The GI50 (CCRF-CEM leukemia) was 17.2 µM, the TGI (CCRF-CEM leukemia) was 45.7 µM and the GI50 (COLO 205 colon) was 18.3 µM. For the same compound, the TGI (COLO 205 colon) was 34.1 µM, the GI50 (DU-145 prostate) was 25.3 µM and the TGI (DU-145 prostate) was 65.8 µM. It also gave a GI50 (EKVX NSCLC) of 13.8 µM, a TGI (EKVX NSCLC) greater than 100 µM and a GI50 (HCC-2998 colon) of 24.5 µM. The TGI (HCC-2998 colon) was 56.4 µM, the GI50 (HCT-116 colon) was 13.1 µM and the TGI (HCT-116 colon) was 26.9 µM. For the same compound, the GI50 (HCT-15 colon) was 20.3 µM, the TGI (HCT-15 colon) was greater than 100 µM and the GI50 (HL-60(TB) leukemia) was 16.7 µM. It also gave a TGI (HL-60(TB) leukemia) of 39.3 µM, a GI50 (HOP-62 NSCLC) of 14.8 µM and a TGI (HOP-62 NSCLC) of 33.2 µM. It also gave a GI50 (HOP-92 NSCLC) of 6.71 µM, a TGI (HOP-92 NSCLC) of 38.3 µM and a GI50 (HT29 colon) of 24.4 µM. It also gave a TGI (HT29 colon) of 73.1 µM, a GI50 (K-562 leukemia) of 13.4 µM and a TGI (K-562 leukemia) of 44.6 µM. For the same compound, the GI50 (KM12 colon) was 18.2 µM, the TGI (KM12 colon) was 38.2 µM and the GI50 (LOX IMVI melanoma) was 14.8 µM. For the same compound, the TGI (LOX IMVI melanoma) was 30.2 µM, the GI50 (MALME-3M melanoma) was 21.9 µM and the TGI (MALME-3M melanoma) was 63.6 µM. For the same compound, the GI50 (MCF7 breast) was 16 µM, the TGI (MCF7 breast) was 57.4 µM and the GI50 (MDA-MB-231 breast) was 14.8 µM. For the same compound, the TGI (MDA-MB-231 breast) was 31.8 µM, the GI50 (MDA-MB-435) was 20.7 µM and the TGI (MDA-MB-435) was 49.2 µM. It also gave a GI50 (MOLT-4 leukemia) of 12.8 µM, a TGI (MOLT-4 leukemia) of 40.5 µM and a GI50 (NCI-H226 lung) of 17.2 µM. The TGI (NCI-H226 lung) was 36.2 µM, the GI50 (NCI-H23 lung) was 24.4 µM and the TGI (NCI-H23 lung) was 70.2 µM. The GI50 (NCI-H460 lung) was 14.5 µM, the TGI (NCI-H460 lung) was 40.3 µM and the GI50 (NCI/ADR-RES ovarian) was 30.2 µM. The TGI (NCI/ADR-RES ovarian) was greater than 100 µM, the GI50 (OVCAR-3 ovarian) was 6.44 µM and the TGI (OVCAR-3 ovarian) was 22.3 µM. It also gave a GI50 (OVCAR-4 ovarian) of 32.7 µM, a TGI (OVCAR-4 ovarian) greater than 100 µM and a GI50 (OVCAR-5 ovarian) of 19.8 µM. For the same compound, the TGI (OVCAR-5 ovarian) was 44.2 µM, the GI50 (OVCAR-8 ovarian) was 32 µM and the TGI (OVCAR-8 ovarian) was 97.5 µM. The GI50 (PC-3 prostate) was 6.95 µM, the TGI (PC-3 prostate) was 69.6 µM and the GI50 (RPMI-8226 leukemia) was 5.69 µM. It also gave a TGI (RPMI-8226 leukemia) of 26.4 µM, a GI50 (RXF 393 renal) of 11.3 µM and a TGI (RXF 393 renal) of 25.3 µM. The GI50 (SF-268 CNS) was 19.7 µM, the TGI (SF-268 CNS) was 56.5 µM and the GI50 (SF-295 CNS) was 11.2 µM. The TGI (SF-295 CNS) was 29.8 µM, the GI50 (SF-539 CNS) was 19.9 µM and the TGI (SF-539 CNS) was 42.8 µM. It also gave a GI50 (SK-MEL-2 melanoma) of 19.5 µM, a TGI (SK-MEL-2 melanoma) of 60.3 µM and a GI50 (SK-MEL-28 melanoma) of 14.3 µM. It also gave a TGI (SK-MEL-28 melanoma) of 29.1 µM, a GI50 (SK-MEL-5 melanoma) of 16.3 µM and a TGI (SK-MEL-5 melanoma) of 31.5 µM. The GI50 (SK-OV-3 ovarian) was 34.7 µM, the TGI (SK-OV-3 ovarian) was greater than 100 µM and the GI50 (SN12C renal) was 24.2 µM. The TGI (SN12C renal) was 71.6 µM, the GI50 (SNB-19 CNS) was 11.7 µM and the TGI (SNB-19 CNS) was 73 µM. It also gave a GI50 (SNB-75 CNS) of 17 µM, a TGI (SNB-75 CNS) of 78.3 µM and a GI50 (SR leukemia) of 20.6 µM. For the same compound, the TGI (SR leukemia) was 47.3 µM, the GI50 (SW-620 colon) was 19.5 µM and the TGI (SW-620 colon) was 42.2 µM. The GI50 (T-47D breast) was 8.76 µM, the TGI (T-47D breast) was 74.7 µM and the GI50 (TK-10 renal) was 23.6 µM. For the same compound, the TGI (TK-10 renal) was 80.6 µM, the GI50 (U251 CNS) was 12.5 µM and the TGI (U251 CNS) was 30.4 µM. For the same compound, the GI50 (UACC-257 melanoma) was 28.1 µM, the TGI (UACC-257 melanoma) was 65.2 µM and the GI50 (UACC-62 melanoma) was 11.2 µM. It also gave a TGI (UACC-62 melanoma) of 25.5 µM, a GI50 (UO-31 renal) of 21.7 µM and a TGI (UO-31 renal) greater than 100 µM.
Work on `COc1ccc(F)cc1/C=C/C(=O)/C=C(/C=C/c1cc(F)ccc1OC)OB(F)F` yielded a GI50 (ACHN renal) of 1.02 µM, a TGI (ACHN renal) of 2.37 µM and a GI50 (CAKI-1 renal) of 1.14 µM. For the same compound, the TGI (CAKI-1 renal) was 2.44 µM, the GI50 (CCRF-CEM leukemia) was 0.261 µM and the TGI (CCRF-CEM leukemia) was 0.679 µM. It also gave a GI50 (DU-145 prostate) of 2.06 µM, a TGI (DU-145 prostate) greater than 100 µM and a GI50 (HCT-116 colon) of 1.39 µM. The TGI (HCT-116 colon) was 4.21 µM, the GI50 (HCT-15 colon) was 1.27 µM and the TGI (HCT-15 colon) was 2.93 µM. The GI50 (HOP-92 NSCLC) was 2.04 µM, the TGI (HOP-92 NSCLC) was 4.62 µM and the GI50 (HS 578T breast) was 3.13 µM. It also gave a TGI (HS 578T breast) greater than 100 µM, a GI50 (HT29 colon) of 1.85 µM and a TGI (HT29 colon) of 4.79 µM. The GI50 (IGROV1 ovarian) was 2.04 µM, the TGI (IGROV1 ovarian) was 6.05 µM and the GI50 (LOX IMVI melanoma) was 1.25 µM. For the same compound, the TGI (LOX IMVI melanoma) was 2.56 µM, the GI50 (MALME-3M melanoma) was 2.05 µM and the TGI (MALME-3M melanoma) was 9.12 µM. The GI50 (MDA-MB-231 breast) was 2.17 µM, the TGI (MDA-MB-231 breast) was 6.1 µM and the GI50 (MDA-MB-435) was 1.47 µM. For the same compound, the TGI (MDA-MB-435) was 5.02 µM, the GI50 (MOLT-4 leukemia) was 0.321 µM and the TGI (MOLT-4 leukemia) was 4.75 µM. The GI50 (NCI-H23 lung) was 1.46 µM, the TGI (NCI-H23 lung) was 4.05 µM and the GI50 (NCI/ADR-RES ovarian) was 1.66 µM. It also gave a TGI (NCI/ADR-RES ovarian) of 6.41 µM, a GI50 (OVCAR-4 ovarian) of 2.33 µM and a TGI (OVCAR-4 ovarian) greater than 100 µM. For the same compound, the GI50 (OVCAR-8 ovarian) was 0.513 µM, the TGI (OVCAR-8 ovarian) was 5.23 µM and the GI50 (PC-3 prostate) was 1.5 µM. The TGI (PC-3 prostate) was 3.89 µM, the GI50 (SF-539 CNS) was 2.4 µM and the TGI (SF-539 CNS) was 6.68 µM. The GI50 (SK-MEL-2 melanoma) was 2.55 µM, the TGI (SK-MEL-2 melanoma) was 7 µM and the GI50 (SK-OV-3 ovarian) was 3.48 µM. For the same compound, the TGI (SK-OV-3 ovarian) was greater than 100 µM, the GI50 (SN12C renal) was 1.64 µM and the TGI (SN12C renal) was 4.83 µM. For the same compound, the GI50 (SNB-75 CNS) was 1.61 µM, the TGI (SNB-75 CNS) was 4.86 µM and the GI50 (SR leukemia) was 0.481 µM. The TGI (SR leukemia) was 23.4 µM, the GI50 (T-47D breast) was 2.17 µM and the TGI (T-47D breast) was 96.6 µM. It also gave a GI50 (UACC-257 melanoma) of 2.03 µM, a TGI (UACC-257 melanoma) of 7.48 µM and a GI50 (UACC-62 melanoma) of 1.27 µM. The TGI (UACC-62 melanoma) was 2.9 µM, the GI50 (UO-31 renal) was 1.13 µM and the TGI (UO-31 renal) was 2.47 µM.

— PubChem BioAssay (NCI)
